Stability data for one molecule are collected here from ChEMBL document CHEMBL1921683, “Radiosynthesis of three [11C]ureido-substituted benzenesulfonamides as PET probes for carbonic anhydrase IX in tumors” (Bioorg Med Chem Lett, 2011).

The nature of this data set: Chemical stability of the compound assessed as decomposition of the compound. Format: physicochemical.

With `N#Cc1ccccc1N[11C](=O)Nc1ccc(S(N)(=O)=O)cc1`, the Stability entry is “Unstable”.
